In PubChem BioAssay AID1919001 (Molecular Pharmacology Branch, DTP, NCI, 2023):

Test system: 699152-130-R-J1-PDC complex spheroid growth
Experiment: Anticancer human tumor 699152-130-R-J1-PDC patient-derived pancreatic carcinoma cell line growth inhibition [AhR]
Conditions: for IC50: curve of first compound; for viability, T/C: stronger effect = lower value
Outline: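 Agents were dosed in half-log steps down from roughly clinical Cmax, or from 10 microM where Cmax was unknown, alone and with AhR antagonists. Read-out: percent test/control growth of tumor spheroids containing HUVEC and MSC stromal cells.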

[1] = second compound 0.1 µM, first compound 0.0316 µM
[2] = second compound 0.1 µM, first compound 0.1 µM
[3] = second compound 0.1 µM, first compound 0.316 µM
[4] = second compound 0.1 µM, first compound 1 µM
[5] = second compound 0.1 µM, first compound 3.16 µM
[6] = second compound 0.1 µM, first compound 10 µM
[7] = second compound 0.316 µM, first compound 0.0316 µM
[8] = second compound 0.316 µM, first compound 0.1 µM
[9] = second compound 0.316 µM, first compound 0.316 µM
[10] = second compound 0.316 µM, first compound 1 µM
[11] = second compound 0.316 µM, first compound 3.16 µM
[12] = second compound 0.316 µM, first compound 10 µM
[13] = second compound 1 µM, first compound 0.0316 µM
[14] = second compound 1 µM, first compound 0.1 µM
[15] = second compound 1 µM, first compound 0.316 µM
[16] = second compound 1 µM, first compound 1 µM
[17] = second compound 1 µM, first compound 3.16 µM
[18] = second compound 1 µM, first compound 10 µM
[19] = second compound 3.16 µM, first compound 0.0316 µM
[20] = second compound 3.16 µM, first compound 0.1 µM
[21] = second compound 3.16 µM, first compound 0.316 µM
[22] = second compound 3.16 µM, first compound 1 µM
[23] = second compound 3.16 µM, first compound 3.16 µM
[24] = second compound 3.16 µM, first compound 10 µM
[25] = second compound 10 µM, first compound 0.0316 µM
[26] = second compound 10 µM, first compound 0.1 µM
[27] = second compound 10 µM, first compound 0.316 µM
[28] = second compound 10 µM, first compound 1 µM
[29] = second compound 10 µM, first compound 3.16 µM
[30] = second compound 10 µM, first compound 10 µM
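Further: compound exposure lasted 7 days after spheroids had grown for 3 days.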

Row | SMILES | IC50 (second compound 0.1 µM) [µM] | IC50 (second compound 0.316 µM) [µM] | IC50 (second compound 1 µM) [µM] | IC50 (second compound 3.16 µM) [µM] | IC50 (second compound 10 µM) [µM] | viability, T/C [1] [%] | viability, T/C [2] [%] | viability, T/C [3] [%] | viability, T/C [4] [%] | viability, T/C [5] [%] | viability, T/C [6] [%] | viability, T/C [7] [%] | viability, T/C [8] [%] | viability, T/C [9] [%] | viability, T/C [10] [%] | viability, T/C [11] [%] | viability, T/C [12] [%] | viability, T/C [13] [%] | viability, T/C [14] [%] | viability, T/C [15] [%] | other results
1 | Nc1ccccc1NC(=O)c1ccc(CNC(=O)OCc2cccnc2)cc1 + Cc1ccccc1N=Nc1ccc(NC(=O)c2ccnn2C)c(C)c1 | 7.66 | 6.79 | 7.2 | 8.03 | > 10 | 85.7 | 97.6 | 102 | 111 | 77.8 | 41.6 | 90.6 | 93.8 | 89.5 | 90.7 | 67.5 | 41.1 | 97.1 | 95.3 | 107 | viability, T/C [16]: 97.4%; viability, T/C [17]: 76.6%; viability, T/C [18]: 39.4%; viability, T/C [19]: 93.2%; viability, T/C [20]: 93.3%; viability, T/C [21]: 104%; viability, T/C [22]: 112%; viability, T/C [23]: 73.2%; viability, T/C [24]: 44.5%; viability, T/C [25]: 115%; viability, T/C [26]: 116%; viability, T/C [27]: 109%; viability, T/C [28]: 102%; viability, T/C [29]: 91.8%; viability, T/C [30]: 58.2%
2 | O=C(C=Cc1cccc(S(=O)(=O)Nc2ccccc2)c1)NO + Cc1ccccc1N=Nc1ccc(NC(=O)c2ccnn2C)c(C)c1 | > 10 | > 10 | > 10 | > 10 | > 10 | 91.2 | 109 | 111 | 110 | 108 | 97.8 | 87.9 | 99.4 | 106 | 114 | 97.3 | 95.4 | 97.5 | 118 | 111 | viability, T/C [16]: 116%; viability, T/C [17]: 101%; viability, T/C [18]: 96.2%; viability, T/C [19]: 103%; viability, T/C [20]: 102%; viability, T/C [21]: 107%; viability, T/C [22]: 115%; viability, T/C [23]: 103%; viability, T/C [24]: 81.5%; viability, T/C [25]: 109%; viability, T/C [26]: 114%; viability, T/C [27]: 116%; viability, T/C [28]: 122%; viability, T/C [29]: 97%; viability, T/C [30]: 85.2%
3 | O=C(c1cc(Cc2n[nH]c(=O)c3ccccc23)ccc1F)N1CCN(C(=O)C2CC2)CC1 + Cc1ccccc1N=Nc1ccc(NC(=O)c2ccnn2C)c(C)c1 | > 10 | > 10 | > 10 | > 10 | > 10 | 90.3 | 92.8 | 109 | 101 | 97.2 | 78.5 | 89.6 | 84.2 | 109 | 90 | 83.5 | 85.2 | 106 | 105 | 90.4 | viability, T/C [16]: 93.8%; viability, T/C [17]: 88.6%; viability, T/C [18]: 85.5%; viability, T/C [19]: 114%; viability, T/C [20]: 99.3%; viability, T/C [21]: 104%; viability, T/C [22]: 94.1%; viability, T/C [23]: 81.1%; viability, T/C [24]: 83.1%; viability, T/C [25]: 123%; viability, T/C [26]: 121%; viability, T/C [27]: 109%; viability, T/C [28]: 89.3%; viability, T/C [29]: 94%; viability, T/C [30]: 85.7%
